Columns and labels:
[1] = target: Cyclin-G-associated kinase (Homo sapiens) (UniProt O14976); conditions: Compound concentration 1000.0 nM
[2] = target: Homeodomain-interacting protein kinase 1 (Homo sapiens) (UniProt Q86Z02); conditions: Compound concentration 1000.0 nM
[3] = target: Ephrin type-A receptor 1 (Homo sapiens) (UniProt P21709); conditions: Compound concentration 1000.0 nM
[4] = target: Dual specificity mitogen-activated protein kinase kinase 2 (Homo sapiens) (UniProt P36507); conditions: Compound concentration 1000.0 nM
Sequence of Dual specificity mitogen-activated protein kinase kinase 2 (Homo sapiens) (P36507 whole entry): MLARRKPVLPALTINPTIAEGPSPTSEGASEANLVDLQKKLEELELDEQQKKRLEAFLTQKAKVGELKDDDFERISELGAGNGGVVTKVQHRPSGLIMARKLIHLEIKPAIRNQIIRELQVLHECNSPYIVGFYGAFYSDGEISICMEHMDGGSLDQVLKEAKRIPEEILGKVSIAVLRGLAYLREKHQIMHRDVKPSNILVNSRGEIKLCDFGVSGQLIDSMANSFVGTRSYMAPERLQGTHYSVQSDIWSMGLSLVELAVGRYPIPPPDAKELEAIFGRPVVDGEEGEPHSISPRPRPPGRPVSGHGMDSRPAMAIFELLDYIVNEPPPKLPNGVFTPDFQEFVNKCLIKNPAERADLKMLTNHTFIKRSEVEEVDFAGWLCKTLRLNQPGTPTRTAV

[5] = target: Tyrosine-protein kinase HCK (Homo sapiens) (UniProt P08631); conditions: Compound concentration 1000.0 nM
[6] = target: Ephrin type-A receptor 4 (Homo sapiens) (UniProt P54764); conditions: Compound concentration 1000.0 nM
[7] = target: Serine/threonine-protein kinase PAK 4 (Homo sapiens) (UniProt O96013); conditions: Compound concentration 1000.0 nM
[8] = target: 5'-AMP-activated protein kinase catalytic subunit alpha-1 (Homo sapiens) (UniProt Q13131); conditions: Compound concentration 1000.0 nM
[9] = target: Peripheral plasma membrane protein CASK (Homo sapiens) (UniProt O14936); conditions: Compound concentration 1000.0 nM
Sequence of Peripheral plasma membrane protein CASK (Homo sapiens) (O14936 whole entry): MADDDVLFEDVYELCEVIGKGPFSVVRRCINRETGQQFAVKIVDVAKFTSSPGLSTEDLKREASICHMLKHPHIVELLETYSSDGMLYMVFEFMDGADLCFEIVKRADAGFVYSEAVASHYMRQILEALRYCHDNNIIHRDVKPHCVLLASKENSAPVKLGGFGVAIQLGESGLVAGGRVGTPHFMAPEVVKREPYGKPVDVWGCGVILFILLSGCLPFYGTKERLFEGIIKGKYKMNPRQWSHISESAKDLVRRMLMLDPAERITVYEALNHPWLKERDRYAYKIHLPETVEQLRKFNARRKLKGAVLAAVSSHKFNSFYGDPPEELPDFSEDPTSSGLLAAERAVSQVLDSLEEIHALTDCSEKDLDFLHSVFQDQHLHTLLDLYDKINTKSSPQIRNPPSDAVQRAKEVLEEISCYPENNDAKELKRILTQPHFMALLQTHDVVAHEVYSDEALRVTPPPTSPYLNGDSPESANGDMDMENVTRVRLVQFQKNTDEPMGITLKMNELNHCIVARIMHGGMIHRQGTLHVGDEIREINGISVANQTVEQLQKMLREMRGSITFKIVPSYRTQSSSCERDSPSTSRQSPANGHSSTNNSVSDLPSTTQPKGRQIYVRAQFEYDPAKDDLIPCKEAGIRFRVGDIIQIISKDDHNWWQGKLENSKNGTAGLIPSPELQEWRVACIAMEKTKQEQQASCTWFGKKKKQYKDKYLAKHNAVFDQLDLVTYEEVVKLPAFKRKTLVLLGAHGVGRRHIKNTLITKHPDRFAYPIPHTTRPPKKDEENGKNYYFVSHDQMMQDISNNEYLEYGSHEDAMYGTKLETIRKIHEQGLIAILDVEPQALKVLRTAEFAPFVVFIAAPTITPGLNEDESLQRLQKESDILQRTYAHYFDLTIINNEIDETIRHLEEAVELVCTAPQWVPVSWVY

[10] = target: Cyclin-dependent kinase 14 (Homo sapiens) (UniProt O94921); conditions: Compound concentration 1000.0 nM
[11] = target: Protein-tyrosine kinase 2-beta (Homo sapiens) (UniProt Q14289); conditions: Compound concentration 1000.0 nM
[12] = target: 1-phosphatidylinositol 3-phosphate 5-kinase (Homo sapiens) (UniProt Q9Y2I7); conditions: Compound concentration 1000.0 nM
[13] = target: Membrane-associated tyrosine- and threonine-specific cdc2-inhibitory kinase (Homo sapiens) (UniProt Q99640); conditions: Compound concentration 1000.0 nM
Sequence of Membrane-associated tyrosine- and threonine-specific cdc2-inhibitory kinase (Homo sapiens) (Q99640 whole entry): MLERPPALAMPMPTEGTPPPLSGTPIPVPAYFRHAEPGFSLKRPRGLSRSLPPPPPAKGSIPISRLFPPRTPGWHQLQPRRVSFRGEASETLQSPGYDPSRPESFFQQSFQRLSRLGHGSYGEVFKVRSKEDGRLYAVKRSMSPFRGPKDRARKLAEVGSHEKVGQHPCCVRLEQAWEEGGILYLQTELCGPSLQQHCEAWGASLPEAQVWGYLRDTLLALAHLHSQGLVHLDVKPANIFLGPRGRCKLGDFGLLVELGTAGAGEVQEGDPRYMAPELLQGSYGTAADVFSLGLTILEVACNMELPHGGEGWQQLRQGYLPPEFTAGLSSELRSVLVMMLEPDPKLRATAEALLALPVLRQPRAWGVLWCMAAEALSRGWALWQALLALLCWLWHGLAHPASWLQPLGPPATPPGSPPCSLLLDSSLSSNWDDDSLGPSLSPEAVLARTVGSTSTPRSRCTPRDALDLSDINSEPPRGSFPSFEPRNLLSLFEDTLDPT

[14] = test system: Tyrosine-protein kinase ABL1 (Homo sapiens), P00519 [F317L]; conditions: Compound concentration 1000.0 nM
[15] = target: Ephrin type-B receptor 2 (Homo sapiens) (UniProt P29323); conditions: Compound concentration 1000.0 nM
[16] = target: cAMP-dependent protein kinase catalytic subunit alpha (Homo sapiens) (UniProt P17612); conditions: Compound concentration 1000.0 nM
[17] = target: Serine/threonine-protein kinase Nek4 (Homo sapiens) (UniProt P51957); conditions: Compound concentration 1000.0 nM
[18] = test system: Epidermal growth factor receptor (Homo sapiens), P00533 [UNDEFINED MUTATION]; conditions: Compound concentration 1000.0 nM
Sequence of Epidermal growth factor receptor (Homo sapiens), P00533 [UNDEFINED MUTATION] (P00533 whole entry, looked up, change not shown): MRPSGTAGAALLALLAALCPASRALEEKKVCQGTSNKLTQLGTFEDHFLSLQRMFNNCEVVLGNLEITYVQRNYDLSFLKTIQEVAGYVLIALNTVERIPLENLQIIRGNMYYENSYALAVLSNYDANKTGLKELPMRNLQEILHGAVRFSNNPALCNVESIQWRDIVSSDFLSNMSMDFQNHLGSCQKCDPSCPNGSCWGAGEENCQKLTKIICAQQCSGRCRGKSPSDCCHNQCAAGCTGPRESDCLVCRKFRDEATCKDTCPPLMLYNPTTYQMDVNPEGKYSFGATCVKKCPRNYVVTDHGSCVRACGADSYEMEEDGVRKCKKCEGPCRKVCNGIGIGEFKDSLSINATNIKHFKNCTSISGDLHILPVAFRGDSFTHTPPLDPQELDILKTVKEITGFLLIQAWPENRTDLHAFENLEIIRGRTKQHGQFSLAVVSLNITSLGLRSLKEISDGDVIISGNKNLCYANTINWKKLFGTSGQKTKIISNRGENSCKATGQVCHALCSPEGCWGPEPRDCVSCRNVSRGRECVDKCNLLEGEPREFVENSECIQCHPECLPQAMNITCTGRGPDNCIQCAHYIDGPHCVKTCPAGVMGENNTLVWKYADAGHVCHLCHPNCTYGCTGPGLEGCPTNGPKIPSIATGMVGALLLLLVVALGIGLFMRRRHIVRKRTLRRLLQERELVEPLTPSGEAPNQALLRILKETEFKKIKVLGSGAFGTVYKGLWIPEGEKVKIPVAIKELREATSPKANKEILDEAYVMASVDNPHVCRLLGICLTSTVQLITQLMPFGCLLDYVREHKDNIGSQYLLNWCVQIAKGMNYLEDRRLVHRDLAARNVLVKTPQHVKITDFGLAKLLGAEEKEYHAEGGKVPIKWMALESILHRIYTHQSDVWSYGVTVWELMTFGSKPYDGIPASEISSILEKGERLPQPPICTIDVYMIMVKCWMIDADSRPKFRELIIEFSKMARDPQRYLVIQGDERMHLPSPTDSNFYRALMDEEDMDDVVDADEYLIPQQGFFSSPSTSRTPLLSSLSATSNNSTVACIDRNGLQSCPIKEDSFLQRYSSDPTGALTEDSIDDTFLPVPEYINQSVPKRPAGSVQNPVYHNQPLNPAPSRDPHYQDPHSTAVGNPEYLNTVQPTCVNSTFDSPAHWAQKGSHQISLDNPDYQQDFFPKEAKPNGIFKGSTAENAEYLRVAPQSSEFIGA

[19] = target: Serine/threonine-protein kinase 17A (Homo sapiens) (UniProt Q9UEE5); conditions: Compound concentration 1000.0 nM
[20] = target: Non-receptor tyrosine-protein kinase TYK2 (Homo sapiens) (UniProt P29597); conditions: Compound concentration 1000.0 nM
[21] = target: Insulin receptor (Homo sapiens) (UniProt P06213); conditions: Compound concentration 1000.0 nM
[22] = test system: Receptor-type tyrosine-protein kinase FLT3 (Homo sapiens), P36888 [K663Q]; conditions: Compound concentration 1000.0 nM
[23] = target: Phosphorylase b kinase regulatory subunit alpha, liver isoform (Homo sapiens) (UniProt P46019); conditions: Compound concentration 1000.0 nM
[24] = target: 5-hydroxytryptamine receptor 1D (Homo sapiens) (UniProt P28221); conditions: Compound concentration 10.0 uM
[25] = target: MAP kinase-activated protein kinase 2 (Homo sapiens) (UniProt P49137); conditions: Compound concentration 1000.0 nM
[26] = target: Cyclin-dependent kinase 7 (Homo sapiens) (UniProt P50613); conditions: Compound concentration 1000.0 nM
[27] = target: Tyrosine-protein kinase Mer (Homo sapiens) (UniProt Q12866); conditions: Compound concentration 1000.0 nM
[28] = test system: Phosphatidylinositol 4,5-bisphosphate 3-kinase catalytic subunit alpha isoform (Homo sapiens), P42336 [I800L]; conditions: Compound concentration 1000.0 nM
[29] = target: Ribosomal protein S6 kinase alpha-5 (Homo sapiens) (UniProt O75582); conditions: Compound concentration 1000.0 nM
[30] = target: Receptor-interacting serine/threonine-protein kinase 2 (Homo sapiens) (UniProt O43353); conditions: Compound concentration 1000.0 nM
[31] = target: Serine/threonine-protein kinase Chk2 (Homo sapiens) (UniProt O96017); conditions: Compound concentration 1000.0 nM
Sequence of Serine/threonine-protein kinase Chk2 (Homo sapiens) (O96017 whole entry): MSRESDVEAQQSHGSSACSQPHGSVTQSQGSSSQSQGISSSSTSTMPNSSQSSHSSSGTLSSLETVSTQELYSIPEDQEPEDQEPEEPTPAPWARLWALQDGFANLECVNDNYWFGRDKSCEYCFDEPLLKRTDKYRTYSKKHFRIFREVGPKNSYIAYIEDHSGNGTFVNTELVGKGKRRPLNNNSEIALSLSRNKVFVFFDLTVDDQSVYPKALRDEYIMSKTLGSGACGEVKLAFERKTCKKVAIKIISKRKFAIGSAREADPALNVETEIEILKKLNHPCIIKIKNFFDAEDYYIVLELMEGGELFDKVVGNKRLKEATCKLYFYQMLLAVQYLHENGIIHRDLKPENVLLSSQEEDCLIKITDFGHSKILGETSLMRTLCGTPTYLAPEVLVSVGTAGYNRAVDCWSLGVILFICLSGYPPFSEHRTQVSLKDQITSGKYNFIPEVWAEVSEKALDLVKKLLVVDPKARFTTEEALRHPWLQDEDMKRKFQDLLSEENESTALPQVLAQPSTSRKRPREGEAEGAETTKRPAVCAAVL

[32] = target: Serine/threonine-protein kinase Nek5 (Homo sapiens) (UniProt Q6P3R8); conditions: Compound concentration 1000.0 nM
[33] = target: Homeodomain-interacting protein kinase 3 (Homo sapiens) (UniProt Q9H422); conditions: Compound concentration 1000.0 nM
[34] = target: Mitogen-activated protein kinase kinase kinase 7 (Homo sapiens) (UniProt O43318); conditions: Compound concentration 1000.0 nM
[35] = target: Serine/threonine-protein kinase Sgk1 (Homo sapiens) (UniProt O00141); conditions: Compound concentration 1000.0 nM
[36] = target: Serine/threonine-protein kinase 32B (Homo sapiens) (UniProt Q9NY57); conditions: Compound concentration 1000.0 nM
[37] = target: Mitogen-activated protein kinase kinase kinase 4 (Homo sapiens) (UniProt Q9Y6R4); conditions: Compound concentration 1000.0 nM
[38] = target: Serine/threonine-protein kinase 38-like (Homo sapiens) (UniProt Q9Y2H1); conditions: Compound concentration 1000.0 nM
Sequence of Serine/threonine-protein kinase 38-like (Homo sapiens) (Q9Y2H1 2-464 limits assumed): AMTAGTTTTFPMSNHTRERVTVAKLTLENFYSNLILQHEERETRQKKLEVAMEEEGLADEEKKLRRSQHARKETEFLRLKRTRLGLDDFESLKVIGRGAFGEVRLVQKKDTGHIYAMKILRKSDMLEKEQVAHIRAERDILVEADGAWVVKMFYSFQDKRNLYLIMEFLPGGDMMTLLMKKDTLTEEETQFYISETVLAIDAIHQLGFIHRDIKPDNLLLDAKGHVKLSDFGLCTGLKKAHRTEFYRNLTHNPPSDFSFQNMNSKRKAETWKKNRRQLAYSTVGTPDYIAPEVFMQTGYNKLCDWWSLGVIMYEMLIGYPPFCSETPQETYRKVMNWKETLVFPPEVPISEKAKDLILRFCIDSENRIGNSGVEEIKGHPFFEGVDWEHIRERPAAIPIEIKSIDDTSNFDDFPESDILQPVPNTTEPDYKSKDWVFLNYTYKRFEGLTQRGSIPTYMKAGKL

[39] = target: Rhodopsin kinase GRK7 (Homo sapiens) (UniProt Q8WTQ7); conditions: Compound concentration 1000.0 nM
[40] = test system: Receptor-type tyrosine-protein kinase FLT3 (Homo sapiens), P36888 [UNDEFINED MUTATION]; conditions: Compound concentration 1000.0 nM
[41] = target: Phosphatidylinositol 5-phosphate 4-kinase type-2 beta (Homo sapiens) (UniProt P78356); conditions: Compound concentration 1000.0 nM
[42] = target: Tyrosine-protein kinase ABL1 (Homo sapiens) (UniProt P00519); conditions: Compound concentration 1000.0 nM
[43] = target: Dual specificity tyrosine-phosphorylation-regulated kinase 1B (Homo sapiens) (UniProt Q9Y463); conditions: Compound concentration 1000.0 nM
[44] = target: Aurora kinase C (Homo sapiens) (UniProt Q9UQB9); conditions: Compound concentration 1000.0 nM
Sequence of Aurora kinase C (Homo sapiens) (Q9UQB9 whole entry): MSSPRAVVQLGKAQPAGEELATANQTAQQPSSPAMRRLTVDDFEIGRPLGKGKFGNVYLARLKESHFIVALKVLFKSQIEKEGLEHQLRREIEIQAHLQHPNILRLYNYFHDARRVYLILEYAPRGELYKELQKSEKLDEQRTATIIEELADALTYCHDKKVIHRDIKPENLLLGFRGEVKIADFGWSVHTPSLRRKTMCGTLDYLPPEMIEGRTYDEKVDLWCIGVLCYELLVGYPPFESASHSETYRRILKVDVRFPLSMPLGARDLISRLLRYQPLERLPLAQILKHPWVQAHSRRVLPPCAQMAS

[45] = target: Dual specificity mitogen-activated protein kinase kinase 7 (Homo sapiens) (UniProt O14733); conditions: Compound concentration 1000.0 nM
Sequence of Dual specificity mitogen-activated protein kinase kinase 7 (Homo sapiens) (O14733 whole entry): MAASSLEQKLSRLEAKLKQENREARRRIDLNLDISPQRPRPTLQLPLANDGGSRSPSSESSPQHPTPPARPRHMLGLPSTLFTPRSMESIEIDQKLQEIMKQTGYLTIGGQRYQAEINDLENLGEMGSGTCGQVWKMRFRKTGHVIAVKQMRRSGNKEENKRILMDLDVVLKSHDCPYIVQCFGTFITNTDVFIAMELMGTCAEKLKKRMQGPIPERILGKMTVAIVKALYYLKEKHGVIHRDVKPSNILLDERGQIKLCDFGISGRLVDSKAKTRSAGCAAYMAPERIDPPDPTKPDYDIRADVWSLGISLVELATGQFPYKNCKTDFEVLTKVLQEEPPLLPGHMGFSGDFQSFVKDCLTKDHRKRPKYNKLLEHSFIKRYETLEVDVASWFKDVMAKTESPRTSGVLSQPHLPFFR

Cc1c(NC(=O)c2cc(C(N)=O)nc3cc(F)ccc23)c(C(F)(F)F)nn1Cc1ccc(C(C)(C)C)cc1 [BAY-588]
inactive: residual activity [1] 98% | residual activity [2] 92% | residual activity [3] 96% | residual activity [4] 100% | residual activity [5] 92% | residual activity [6] 100% | residual activity [7] 100% | residual activity [8] 100% | residual activity [9] 100% | residual activity [10] 94% | residual activity [11] 92% | residual activity [12] 100% | residual activity [13] 100% | residual activity [14] 98% | residual activity [15] 83% | residual activity [16] 87% | residual activity [17] 100% | residual activity [18] 77% | residual activity [19] 79% | residual activity [20] 100% | residual activity [21] 100% | residual activity [22] 100% | residual activity [23] 83% | inhibition [24] -4.9% | residual activity [25] 100% | residual activity [26] 100% | residual activity [27] 86% | residual activity [28] 100% | residual activity [29] 89% | residual activity [30] 93% | residual activity [31] 99% | residual activity [32] 100% | residual activity [33] 100% | residual activity [34] 100% | residual activity [35] 100% | residual activity [36] 100% | residual activity [37] 100% | residual activity [38] 89% | residual activity [39] 100% | residual activity [40] 95% | residual activity [41] 91% | residual activity [42] 96% | residual activity [43] 81% | residual activity [44] 100% | residual activity [45] 100%

Cc1c(NC(=O)c2cc(C(N)=O)nc3cc(F)ccc23)c(C(F)(F)F)nn1Cc1ccc(C#N)cc1 [BAY-876]
inactive: residual activity [1] 95% | residual activity [2] 73% | residual activity [3] 74% | residual activity [4] 89% | residual activity [5] 69% | residual activity [6] 99% | residual activity [7] 98% | residual activity [8] 86% | residual activity [9] 71% | residual activity [10] 100% | residual activity [11] 95% | residual activity [12] 92% | residual activity [13] 99% | residual activity [14] 81% | residual activity [15] 100% | residual activity [16] 78% | residual activity [17] 92% | residual activity [18] 83% | residual activity [19] 90% | residual activity [20] 83% | residual activity [21] 100% | residual activity [22] 93% | residual activity [23] 94% | inhibition [24] 6.11% | residual activity [25] 97% | residual activity [26] 52% | residual activity [27] 100% | residual activity [28] 78% | residual activity [29] 100% | residual activity [30] 100% | residual activity [31] 73% | residual activity [32] 100% | residual activity [33] 85% | residual activity [34] 68% | residual activity [35] 90% | residual activity [36] 100% | residual activity [37] 97% | residual activity [38] 100% | residual activity [39] 75% | residual activity [40] 80% | residual activity [41] 88% | residual activity [42] 84% | residual activity [43] 87% | residual activity [44] 90% | residual activity [45] 79%
